According to patent US20170131285A1, “METHODS AND COMPOSITIONS FOR DIAGNOSING, MONITORING AND TREATING CANCER” (INSERM (Institut National de la Sante et de la Recherche …, priority 2014, published 2017):
Where no end group is shown, it is not given here.

Key:
HSP70/TLR2 association = biological target: T1, HSP70/TLR2 association (Homo sapiens, UniProt P0DMV8); experiment: In vitro co-immunoprecipitation of TLR2 followed by HSP70 immunoblotting; assay type: binding; conditions: A8 from 0.3 μM to 1.8 μM, HSP70 immunoblot
T1 construct: HA; made in house; host or cells: cell-free: TNT Quick Coupled Transcription/Translation System (Promega)
Experimental: FIG. 3: A8 blocks HSP70/TLR2 association. (A) Immunoprecipitation of TLR2 in the presence of increasing concentrations of A8 (from 0.3 μM to 1.8 μM) was followed by HSP70 immunoblotting. IP control, no relevant IgG antibody. (B) Denatured luciferase (D) was incubated in the absence or presence of human HSP70 and, when indicated, increasing concentrations of A8 (C1=5 μM; C2=15 μM; C3=25 μM and C4=50 μM) for 1 hour at 25° C. Following incubation, the luciferase substrate D-luciferin was added and within 10 minutes the total light units emitted were collected for 10 seconds at 560 nm using a Wallac (Victor 3) spectrophotometer. *, p<0.05. (C) Biolayer interferometry to determine association and dissociation curves of HSP70 (concentration range from 2.5 μM to 156 nM) with biotinylated TRL2 immobilized on streptavidin sensor tips. (D) Association and dissociation curves of HSP70 (concentration range from 50 nM to 1.28 nM) with biotinylated A8 immobilized on streptavidin sensor tips. Curves in C and D represent mean values of triplicate measurements for each concentration.
For the in vitro coimmunoprecipitation, we used A8 or TLR2 recombinants proteins. […] The immunoprecipitated proteins were analysed by western blot.
For the in vitro co-immunoprecipitation, we used A8 or TLR2 recombinants proteins. […] The immunoprecipitated proteins were analyzed by western blot.

primary MDSC cells = experiment: Activation of primary MDSC by exosomes (pSTAT3, IL-6, IL-10, IFNγ in T cell co-culture); assay type: cell-based; conditions: primary MDSC from mouse spleen, exosomes from B16F10, A8 16 μM
Experimental: FIG. 8: A8 blocks the activation of primary MDSC cells. A) A representative image of a western blot showing the kinetics of STAT3 phosphorylation in MDSC cells incubated or not with exosomes isolated from B16F10 cells together with a peptide control (MDSC/TDE) or A8 (MDSC/TDE/A8). B-C) IL-6 (B) and IL-10 (C) concentration was determined by ELISA in the supernatant of MDSC cells incubated or not for 24 h with exosomes (from B16F10) in the absence or presence of A8 (16 μM). D) IFNγ concentration was determined by ELISA in the supernatant of co-cultured MDSC and T lymphocytes incubated or not for 5 days with exosomes (from B16F10) in the absence or presence of A8 ([…]). **, p<0.01; *, p<0.1 (n=3).
MSC2 (2·10^6) or MDSC (2·10^6) were incubated alone or with exosomes (from B16F10, CT26, HCT116, SW480) in the absence or presence of A8 or A17 (16 μM) during 6 hours (RPMI 10% FBS, 5% of CO2 at 37° C.). Every 2 hours, […] cells were sampled and centrifugated 5 min at 300 g. Cells were lysed in lysis buffer (50 mM HEPES (pH 7.6), 150 mM NaCl, 5 mM EDTA, and 0.1% NP40 and anti-phosphatases, Roche). Then, pSTAT3 and STAT3 expression were analyzed by western blotting.
Single-cell suspensions were prepared from spleens, and red cells were removed using ammonium chloride lysis buffer. […] All events were acquired by a BD Bioscience LSR-II device and analyzed with FlowJo (Tree Star). […]

[1] = after systemic administration; cited from earlier work

T1 sequence (P0DMV8 whole entry): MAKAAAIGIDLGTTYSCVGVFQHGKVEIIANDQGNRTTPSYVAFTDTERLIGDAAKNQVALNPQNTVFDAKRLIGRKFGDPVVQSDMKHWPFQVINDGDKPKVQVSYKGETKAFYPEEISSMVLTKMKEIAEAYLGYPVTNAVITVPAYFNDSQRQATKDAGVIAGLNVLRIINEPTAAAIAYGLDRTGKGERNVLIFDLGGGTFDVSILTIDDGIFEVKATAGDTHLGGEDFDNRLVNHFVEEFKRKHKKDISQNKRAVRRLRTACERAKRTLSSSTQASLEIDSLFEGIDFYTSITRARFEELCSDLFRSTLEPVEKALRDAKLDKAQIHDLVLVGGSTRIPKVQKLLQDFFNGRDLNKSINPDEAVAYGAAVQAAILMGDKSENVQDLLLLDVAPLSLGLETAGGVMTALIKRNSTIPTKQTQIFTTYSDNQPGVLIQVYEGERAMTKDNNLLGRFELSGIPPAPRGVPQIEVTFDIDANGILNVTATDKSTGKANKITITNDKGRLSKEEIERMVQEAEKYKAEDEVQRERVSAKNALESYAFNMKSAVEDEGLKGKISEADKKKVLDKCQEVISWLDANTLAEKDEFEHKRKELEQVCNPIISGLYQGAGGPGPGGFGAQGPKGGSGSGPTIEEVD

For SPWPRPTY [Aptamer A8, SPWPRPTY], the “HSP70 association to TLR2” value (HSP70/TLR2 association) is listed as “inhibited by A8 in a dose-dependent manner”, the “MDSC activation markers (IL6 release, STAT-3 phosphorylation, IL10 release, IFNgamma release by T cells)” value (primary MDSC cells) is listed as “blocks all MDSC activation markers” and the “biodistribution (localization of the peptide)” value [1] is listed as “localizes mainly in the tumor area”.
